Columns and labels:
[1] = biological target: T1, wild type AXL (wtAXL) receptor tyrosine kinase (Homo sapiens, UniProt P30530); assay: NIH-3T3-AXL cellular kinase assay (pY-AXL-ELISA); assay type: cell-based; details: NIH-3T3-AXL (clone 22) cells, serum depleted, compounds 1 h; Table Ia
T1 construct: WtAXL cDNA was cloned into vector pLXSN(ESK) and transfected into Phoenix E packaging cells; expressed in transfected cells; host or cells: NIH3T3 N7 (mouse fibroblasts), retrovirally infected, clone 22
T1 sequence (P30530 26-894): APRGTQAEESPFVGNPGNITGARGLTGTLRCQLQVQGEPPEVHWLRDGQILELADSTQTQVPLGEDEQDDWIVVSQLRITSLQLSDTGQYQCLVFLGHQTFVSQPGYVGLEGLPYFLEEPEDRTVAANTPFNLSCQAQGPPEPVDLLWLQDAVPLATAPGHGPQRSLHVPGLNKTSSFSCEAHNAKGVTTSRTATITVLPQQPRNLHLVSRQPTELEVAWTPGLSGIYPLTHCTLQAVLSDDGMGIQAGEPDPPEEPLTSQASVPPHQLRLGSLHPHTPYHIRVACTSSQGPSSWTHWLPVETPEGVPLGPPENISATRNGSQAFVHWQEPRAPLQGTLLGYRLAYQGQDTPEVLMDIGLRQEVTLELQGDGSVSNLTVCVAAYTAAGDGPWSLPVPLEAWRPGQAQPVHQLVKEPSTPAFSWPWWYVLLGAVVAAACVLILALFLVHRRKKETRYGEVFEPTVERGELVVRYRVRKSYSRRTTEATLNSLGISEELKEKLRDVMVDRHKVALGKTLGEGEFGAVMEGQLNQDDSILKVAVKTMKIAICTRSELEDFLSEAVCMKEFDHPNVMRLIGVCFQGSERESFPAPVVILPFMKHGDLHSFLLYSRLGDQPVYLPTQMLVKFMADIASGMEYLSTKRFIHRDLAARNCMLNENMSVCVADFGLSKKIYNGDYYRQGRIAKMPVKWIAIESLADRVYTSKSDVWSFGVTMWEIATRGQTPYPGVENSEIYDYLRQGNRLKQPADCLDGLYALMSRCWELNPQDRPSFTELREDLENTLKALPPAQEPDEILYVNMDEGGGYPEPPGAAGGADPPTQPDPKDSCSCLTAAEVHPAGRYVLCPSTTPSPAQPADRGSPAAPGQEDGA
How it was run: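 NIH3T3 cells stably expressing human wild-type AXL (retroviral, puromycin-selected clones) were treated with serial compound dilutions for 1 h and lysed. AXL tyrosine phosphorylation was measured by ELISA on the lysates: biotinylated 4G10 anti-phosphotyrosine, streptavidin-alkaline phosphatase, AttoPhos fluorescence at 430/560 nm after 90 min.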

Hs578T [2] = assay: Cell vitality assay (ATP assay, CellTiter-Glo); assay type: cell-based; details: Homo sapiens, Hs-578T; HS578T cell line, 72 h; Table Ib; read-out: IC50 ATP-Assay HS578T after 72 h
How it was run: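 Cells (1000/well) incubated 72 h with test compound, top dose 12.5 μM, twofold dilutions, DMSO as reference. Lysis reagent added, luminescence recorded; background from cell-free medium wells.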

Hs578T [3] = assay: Wound healing migration assay; assay type: cell-based; details: Homo sapiens, Hs-578T; HS578T cell line; Table Ib
How it was run: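 Cells seeded at 150000/24 well, grown to monolayer overnight, scratched with a pipette tip, then treated with compound at 12.5, 6.25 or 3.125 μM versus DMSO. Stopped by crystal violet fixation at 48-72 h once control wounds closed; IC50 taken as 50% wound size between t0 and t48 or t72.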

Hs578T [4] = assay: Matrigel outgrowth assay/branching assay; assay type: cell-based; details: Homo sapiens, Hs-578T; HS578T cell line; Table Ib; read-out: Total branching inhibition in Matrigel HS578T
How it was run: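 Read-out: microscopic images of invasive branching structures at 48 h, 72 h and 96 h. Cells sat on a 3 mg/ml Matrigel layer (set 1 h, 37° C) with compound at 3.125, 1.56 and 0.78 μM or DMSO. A concentration counts as positive only with complete branching inhibition.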

Compound	IC50 [1]	IC50 (Hs578T [2])	IC50 (Hs578T [3])	IC50 (Hs578T [4])	melting point
COc1cc2c(Oc3ccc(NS(=O)(=O)c4csc5ccccc45)cc3F)ccnc2cc1OCCCN1CCOCC1 [Example 114, Benzo[b]thiophene-3-sulfonic acid {3-fluoro-4-[6-methoxy-7-(3-morpholin-4-yl-propoxy)-quinolin-4-yloxy]-phenyl}-amide]	< 0.5 µM	≤ 12.5 µM	12.5 to 50 µM	10 to 25 µM	196 to 197 °C
COc1cc2c(Oc3ccc(NS(=O)(=O)c4cccs4)cc3F)ccnc2cc1OCCCN1CCCCC1C (stereo not shown) [Example 144, Thiophene-2-sulfonic acid (3-fluoro-4-{6-methoxy-7-[3-(2-methyl-piperidin-1-yl)-propoxy]-quinolin-4-yloxy}-phenyl)-amide]	< 0.5 µM	≤ 12.5 µM	≤ 12.5 µM	10 to 25 µM	117 to 119 °C
COc1cc2c(Oc3ccc(NS(=O)(=O)c4cc(Cl)ccc4Cl)cc3F)ccnc2cc1OCCCN(C)C [Example 180, 2,5-Dichloro-N-{4-[7-(3-dimethylamino-propoxy)-6-methoxy-quinolin-4-yloxy]-3-fluoro-phenyl}-benzenesulfonamide]	< 0.5 µM	≤ 12.5 µM	≤ 12.5 µM	≤ 10 µM	150 to 152 °C
COc1cc2c(Oc3ccc(NS(=O)(=O)c4ccc(C)s4)cc3F)ccnc2cc1OCCCN1CCCC(C)C1 (stereo not shown) [Example 62, 5-Methyl-thiophene-2-sulfonic acid (3-fluoro-4-{6-methoxy-7-[3-(3-methyl-piperidin-1-yl)-propoxy]-quinolin-4-yloxy}-phenyl)-amide]	< 0.5 µM	≤ 12.5 µM	12.5 to 50 µM	10 to 25 µM	99 to 101 °C
COc1cc2c(Oc3ccc(NS(=O)(=O)c4cccc(OC(F)F)c4)cc3F)ccnc2cc1OCCCN1CCCC(C)C1 (stereo not shown) [Example 43, 3-Difluoromethoxy-N-(3-fluoro-4-{6-methoxy-7-[3-(3-methyl-piperidin-1-yl)-propoxy]-quinolin-4-yloxy}-phenyl)-benzenesulfonamide]	< 0.5 µM	≤ 12.5 µM	≤ 12.5 µM	≤ 10 µM	99 to 100 °C
COc1cc2c(Oc3ccc(NS(=O)(=O)c4csc5ccccc45)cc3F)ccnc2cc1OCCCN1CCCCC1 [Example 113, Benzo[b]thiophene-3-sulfonic acid {3-fluoro-4-[6-methoxy-7-(3-piperidin-1-yl-propoxy)-quinolin-4-yloxy]-phenyl}-amide]	< 0.5 µM	≤ 12.5 µM	≤ 12.5 µM	≤ 10 µM	128 to 130 °C
COc1cc2c(Oc3ccc(NS(=O)(=O)c4cccc(OC(F)F)c4)cc3F)ccnc2cc1OCCCN1CCCCC1 [Example 9, 3-Difluoromethoxy-N-{3-fluoro-4-[6-methoxy-7-(3-piperidin-1-yl-propoxy)-quinolin-4-yloxy]-phenyl}-benzenesulfonamide]	< 0.5 µM	≤ 12.5 µM	12.5 to 50 µM	10 to 25 µM	105 to 106 °C
COc1cc2c(Oc3ccc(NS(=O)(=O)c4c(Cl)csc4Cl)cc3F)ccnc2cc1OCCCN1CCCC(C)C1 (stereo not shown) [Example 64, 2,4-Dichloro-thiophene-3-sulfonic acid (3-fluoro-4-{6-methoxy-7-[3-(3-methyl-piperidin-1-yl)-propoxy]-quinolin-4-yloxy}-phenyl)-amide]	< 0.5 µM	≤ 12.5 µM	≤ 12.5 µM	10 to 25 µM	119 to 121 °C
COc1cc2c(Oc3ccc(NS(=O)(=O)c4cc(Cl)ccc4Cl)cc3Cl)ccnc2cc1OCCCN1CCN(C)CC1 [Example 124, 2,5-Dichloro-N-(3-chloro-4-{6-methoxy-7-[3-(4-methyl-piperazin-1-yl)-propoxy]-quinolin-4-yloxy}-phenyl)-benzenesulfonamide]	< 0.5 µM	≤ 12.5 µM	≤ 12.5 µM	≤ 10 µM	144 to 145 °C
COc1cc2c(Oc3ccc(NS(=O)(=O)c4csc5ccccc45)cc3F)ccnc2cc1OCCCN1CCCC(C)C1 (stereo not shown) [Example 67, Benzo[b]thiophene-3-sulfonic acid (3-fluoro-4-{6-methoxy-7-[3-(3-methyl-piperidin-1-yl)-propoxy]-quinolin-4-yloxy}-phenyl)-amide]	< 0.5 µM	≤ 12.5 µM	≤ 12.5 µM	≤ 10 µM	126 to 128 °C
COc1cc2c(Oc3ccc(NS(=O)(=O)c4csc5ccccc45)cc3F)ccnc2cc1OCCCN1CCCCC1C (stereo not shown) [Example 147, Benzo[b]thiophene-3-sulfonic acid (3-fluoro-4-{6-methoxy-7-[3-(2-methyl-piperidin-1-yl)-propoxy]-quinolin-4-yloxy}-phenyl)-amide]	0.5 to 3 µM	≤ 12.5 µM	≤ 12.5 µM	≤ 10 µM	120 to 122 °C
COc1cc2c(Oc3ccc(NS(=O)(=O)c4ccccc4F)cc3Cl)ccnc2cc1OCCCN1CCN(C)CC1 [Example 111, N-(3-Chloro-4-{6-methoxy-7-[3-(4-methyl-piperazin-1-yl)-propoxy]-quinolin-4-yloxy}-phenyl)-2-fluoro-benzenesulfonamide]	< 0.5 µM	≤ 12.5 µM	≤ 12.5 µM	≤ 10 µM	170 to 171 °C
COc1cc2c(Oc3ccc(NS(=O)(=O)c4ccco4)cc3F)ccnc2cc1OCCCN1CCCCC1C (stereo not shown) [Example 148, Furan-2-sulfonic acid (3-fluoro-4-{6-methoxy-7-[3-(2-methyl-piperidin-1-yl)-propoxy]-quinolin-4-yloxy}-phenyl)-amide]	0.5 to 3 µM	≤ 12.5 µM	12.5 to 50 µM	10 to 25 µM	118 to 119 °C
COc1cc2c(Oc3ccc(NS(=O)(=O)c4ccsc4)cc3F)ccnc2cc1OCCCN1CCCC(C)C1 (stereo not shown) [Example 65, Thiophene-3-sulfonic acid (3-fluoro-4-{6-methoxy-7-[3-(3-methyl-piperidin-1-yl)-propoxy]-quinolin-4-yloxy}-phenyl)-amide]	< 0.5 µM	≤ 12.5 µM	≤ 12.5 µM	10 to 25 µM	174 to 176 °C
COc1cc2c(Oc3cccc(NS(=O)(=O)c4c(Cl)cccc4Cl)c3)ccnc2cc1OCCCN1CCN(C)CC1 [Example 128, 2,6-Dichloro-N-(3-{6-methoxy-7-[3-(4-methyl-piperazin-1-yl)-propoxy]-quinolin-4-yloxy}-phenyl)-benzenesulfonamide]	0.5 to 3 µM	≤ 12.5 µM	≤ 12.5 µM	≤ 10 µM	111 to 112 °C
COc1cc2c(Oc3ccc(NS(=O)(=O)c4cc(Cl)cc(Cl)c4)cc3F)ccnc2cc1OCCCN1CCCC(C)C1 (stereo not shown) [Example 53, 3,5-Dichloro-N-(3-fluoro-4-{6-methoxy-7-[3-(3-methyl-piperidin-1-yl)-propoxy]-quinolin-4-yloxy}-phenyl)-benzenesulfonamide]	< 0.5 µM	≤ 12.5 µM	≤ 12.5 µM	10 to 25 µM	126 to 128 °C
COc1cc2c(Oc3ccc(NS(=O)(=O)c4ccc(F)c(F)c4)cc3F)ccnc2cc1OCCCN1CCCC(C)C1 (stereo not shown) [Example 48, 3,4-Difluoro-N-(3-fluoro-4-{6-methoxy-7-[3-(3-methyl-piperidin-1-yl)-propoxy]-quinolin-4-yloxy}-phenyl)-benzenesulfonamide]	< 0.5 µM	≤ 12.5 µM	≤ 12.5 µM	10 to 25 µM	120 to 122 °C

— patent US9169241B2, “Quinolinyloxyphenylsulfonamides” (Max-Planck-Gesellschaft Zur Forderung der Wissenschaften …, priority 2009, dated 2015)
